Measurements from the supplement of paper PMC10307832.

What was measured:
Assay in all cases: relative viability (nuclei count vs DMSO), 5 days (fraction); higher = more cells survive
[1] = compound: CN[C@@H]1C[C@H]2O[C@@](C)([C@@H]1OC)n1c3ccccc3c3c4c(c5c6ccccc6n2c5c31)C(=O)NC4 [Staurosporine] + CC1(C)CCC(c2ccc(Cl)cc2)=C(CN2CCN(c3ccc(C(=O)NS(=O)(=O)c4ccc(N[C@H](CCN5CCOCC5)CSc5ccccc5)c(S(=O)(=O)C(F)(F)F)c4)cc3)CC2)C1 [Navitoclax] (partner 0.5 µM)
Method in brief: (§1)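 Nuclei were stained with Hoechst during a one-step fixation (final 0.05% Triton X-100, 1% formaldehyde, 1 ug/ml Hoechst) carried out 5 days after dosing, then counted on 4× images. The cells, lung cancer lines in 1536-well plates, had been dosed by pin tool the day after seeding with one drug alone or a fixed anchor-drug dose plus five library-drug doses (not always all listed) in √10 steps. Relative viability is the nuclei count in treated wells divided by that in vehicle wells, and each value is the median of duplicate plates.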

[2] = compound: O=c1[nH]cc(F)c(=O)[nH]1 [5-Fluorouracil] + CC(=O)c1c(C)c2cnc(Nc3ccc(N4CCNCC4)cn3)nc2n(C2CCCC2)c1=O [Palbociclib] (partner 0.5 µM)
Method in brief: as §1

[3] = compound: O=c1[nH]cc(F)c(=O)[nH]1 [5-Fluorouracil] + CCNC(=O)c1noc(-c2cc(C(C)C)c(O)cc2O)c1-c1ccc(CN2CCOCC2)cc1 [Luminespib] (partner 0.01 µM)
Method in brief: as §1

[4] = compound: O=c1[nH]cc(F)c(=O)[nH]1 [5-Fluorouracil] + CS(=O)(=O)CCNCc1ccc(-c2ccc3ncnc(Nc4ccc(OCc5cccc(F)c5)c(Cl)c4)c3c2)o1 [Lapatinib] (partner 2 µM)
Method in brief: as §1

Cell Line	relative viability ([1]; first compound 0.005 µM)	relative viability ([1]; first compound 0.01581 µM)	relative viability ([1]; first compound 0.05 µM)	relative viability ([1]; first compound 0.1581 µM)	relative viability ([1]; first compound 0.5 µM)	relative viability ([2]; first compound 0.02 µM)	relative viability ([2]; first compound 0.2 µM)	relative viability ([2]; first compound 0.6325 µM)	relative viability ([2]; first compound 2 µM)	relative viability ([3]; first compound 0.02 µM)	relative viability ([3]; first compound 0.2 µM)	relative viability ([3]; first compound 0.6325 µM)	relative viability ([3]; first compound 2 µM)	relative viability ([4]; first compound 0.02 µM)	relative viability ([4]; first compound 0.2 µM)	relative viability ([4]; first compound 0.6325 µM)	relative viability ([4]; first compound 2 µM)
LOU-NH91	0.725	0.455	0.367	0.269	0.249	0.545	0.536	0.541	0.399	0.37	0.355	0.332	0.277	0.777	0.83	0.497	0.406
LU99A	0.876	0.589	0.359	0.211	0.128	0.441	0.419	0.361	0.257	0.245	0.281	0.234		1.03	1.03	0.77	0.551
LXF-289	0.944		0.263	0.0806	0.14	0.596	0.578	0.312	0.283	0.701	0.435	0.251	0.238	0.897	0.782	0.333	0.285
NCI-H23	0.764	0.412	0.257	0.2	0.12	0.527	0.551	0.325	0.245	0.201	0.205	0.196	0.212	1.11	1.09	0.545	0.268
NCI-H460	0.949	0.87	0.232	0.0102	0.0078	0.236	0.167	0.046	0.045	0.0365	0.0336	0.0342	0.0284	0.964	0.446	0.106	0.0598
NCI-H520	1.15	0.935	0.408	0.204	0.13	0.177	0.271	0.218	0.167	0.19	0.236	0.19	0.21	0.952	0.856	0.459	0.333
NCI-H647	0.728	0.142	0.291	0.0554	0.0386	0.343	0.516	0.308	0.358	0.166	0.157	0.243	0.136	1.14	1.2	1.07	0.687
NCI-H727	0.285	0.251	0.265	0.193	0.18	0.839	0.685	0.745	0.607	0.329	0.402	0.345	0.295	1.08	1	0.743	0.594
NCI-H838	0.307	0.22	0.203	0.161	0.113	0.196	0.223	0.19	0.174	0.261	0.245	0.209	0.16	0.918	1.03	0.433	0.271
NCI-H1355	0.975	0.549	0.249	0.28	0.217	0.41	0.364	0.241	0.207	0.644	0.57	0.287	0.246	0.97	0.899	0.39	0.311
NCI-H1395	1.05	0.495	0.458	0.327	0.301	0.538	0.692	0.641	0.609	0.638	0.675	0.743	0.658	0.724	1.12	1.01	0.825
NCI-H1437	0.982	0.865	0.695	0.189	0.101	0.306	0.221	0.161	0.225	0.706	0.324	0.313	0.202		0.231	0.142	0.142
NCI-H1650	0.63	0.493	0.29	0.192	0.116	0.275	0.379	0.31	0.236	0.213	0.185	0.246	0.211	0.707	0.758	0.563	0.445
NCI-H1651	0.897	0.559	0.305	0.112	0.0765	0.512	0.467	0.283	0.272	1.02	0.764	0.588	0.466	1.04	0.701	0.471	0.435
NCI-H1666	0.722	0.554	0.395	0.324	0.202	0.677	0.642	0.647	0.609	0.992	0.639	0.419	0.44	0.726	0.418	0.378	0.318
NCI-H1734	0.921	0.363	0.195	0.105	0.0733	0.349	0.346	0.271	0.264	0.173	0.193	0.198	0.189	1.11	1.14	0.808	0.392
NCI-H1755	1.01	0.633	0.253	0.185	0.138	0.448	0.501	0.409	0.376	0.57	0.346	0.331	0.219	1.06	0.848	0.327	0.263
NCI-H1792	0.735	0.473	0.197		0.136	0.688	0.696	0.352	0.29	0.616	0.439	0.262	0.182	0.893	0.853	0.235	0.161
NCI-H1793	0.573	0.238	0.326	0.23	0.264	0.285	0.299	0.274	0.243	0.205	0.183	0.203	0.176	0.581	0.853	0.471	0.347
